Molecules are shown by their SMILES.

For this experiment, the system named is OVCAR-5 ovarian cancer model. Put plainly: MN quantification in tumor nodules of OVCAR-5 intraperitoneal model after topotecan. It counts as in vivo, mouse. To be noted: topotecan 7.5 mg/kg intraperitoneally, single dose, euthanized 48 hours later; vs vehicle control. The protocol:
In vivo experiments. For the in vivo mouse experiments, female athymic (NCr-nude) mice were purchased from Taconic Biosciences. Mice were cared for in accordance with the American Association for Assessment and Accreditation of Laboratory Animal Care and the U.S. Public Health Service policy on Humane Care and Use of Laboratory Animals. All studies and experiments that were performed were supervised and approved by the MD Anderson Institutional Animal Care and Use Committee. Mice were 10 to 15 weeks old at the time of tumor intraperitoneal cell injections. OVCAR-5 luciferase—labeled cells (1×10^6) were injected intraperitoneally into each mouse. […]
Human tumor samples and MN quantification. […] For MN identification and quantification, the Vectra Polaris platform (PerkinElmer) was used, and inForm software (PerkinElmer) was used to systematically count MN. After tissue segmentation, a number of nuclei in views were calculated by the cell segmentation process, and MN was defined as over 0.85 roundness and less than approximately 3 μm size (95 pixels in 96 dpi images), as shown in FIG. 3D.
To validate these findings in vivo, the OVCAR-5 ovarian cancer model, which represents disseminated peritoneal disease, was used. […] To calculate the number of MN, multiple IF images of tumor slides were taken, and MN were systematically counted by the Vectra—inForm Image Analysis System (PerkinElmer) (FIG. 3D).

For `CC[C@@]1(O)C(=O)OCc2c1cc1n(c2=O)Cc2cc3c(CN(C)C)c(O)ccc3nc2-1` [topotecan], the “MN-positive cell percentages in tumor” value was “trend toward an increased”.

The values are drawn from patent US20220163532A1, “NUCLEAR-DERIVED EXOSOMES AND METHODS OF USE THEREOF” (Board of Regents, The University of Texas System, priority 2019, published 2022).
